Data: patent publication US20240374779A1, “ANTIMICROBIAL ARTICLES, METHODS OF MAKING AND USING SAME” (TERASAKI INSTITUTE FOR BIOMEDICAL INNOVATION, priority 2021, published 2024)

How the values were obtained:
[1] = hydrogen peroxide release kinetics from microspheres (dissolved oxygen in PBS with catalase); format: physicochemical; settings: early stages (0-3 days); levels decreased gradually
Description: The hydrogen peroxide release kinetics of the CPO/PLGA MPS were determined indirectly by measuring the dissolved oxygen levels in phosphate buffered saline (PBS) after breaking down the hydrogen peroxide with catalase. Dissolved oxygen levels were measured by an oxygen sensor probe (ISO-OXY-2, World Precision Instruments), which was connected to the free radical analyzer (TBR1025, World Precision Instruments). MPS with different CPO loading and MPS with different dimensions were evaluated. […] Catalase was used to catalyze the decomposition of hydrogen peroxide to water and oxygen. […] After fully flushed, the hypoxic chamber with glass vials containing samples was sealed and placed into a cell culture incubator at 37° C.

[2] = tested on: C. difficile spores; settings: similar concentrations (about 100 ppm) of vaporized hydrogen peroxide; cited from earlier work
[3] = rats; cited from earlier work

With `[Ca+2].[O-][O-]` [free CPO, calcium peroxide] the “peroxide levels with free CPO in PBS” value [1] was “Elevated peroxide levels”.

For `OO` [vaporized hydrogen peroxide, hydrogen peroxide], the “time to eradicate C. difficile spores” value [2] is listed as ≤ 20 min.

In the case of `NC(N)=O` [Urea], the LD50 [3] is listed as “about 15 g/kg”.
